{
  "source": "patent US20250034136A1",
  "about": "(Nimbus Wadjet, Inc., priority 2023, published 2025)",
  "key": {"[1]": {"tested_on": "p21 induction in HCT116 cells", "assay": "p21 induction in HCT116 cells", "format": "cell-based", "details": "Homo sapiens, HCT-116, 24 h, HCT116 cells, 24 h compound incubation; read-out: P21_EC50", "procedure,_shortened": "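HCT116 cells, 2,000/well, treated 24 h at 37 °C with 11-point compound dilutions in duplicate. Fixed, then immunostained for p21 and GAPDH and read by near-IR imaging at 800/700 nm. Normalized to DMSO (low) and reference WRN inhibitor (high) controls; EC50 from non-linear regression.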"}, "[2]": {"target": "WRN (BV08), human Werner helicase (Uniprot Q14191, amino acids 517-1235 with L1074F point mutation) (Homo sapiens (Human), UniProt Q14191, L1074F)", "sequence (Q14191 other isoform, or with tags, fused parts or gaps L1074F (already in the parent))": "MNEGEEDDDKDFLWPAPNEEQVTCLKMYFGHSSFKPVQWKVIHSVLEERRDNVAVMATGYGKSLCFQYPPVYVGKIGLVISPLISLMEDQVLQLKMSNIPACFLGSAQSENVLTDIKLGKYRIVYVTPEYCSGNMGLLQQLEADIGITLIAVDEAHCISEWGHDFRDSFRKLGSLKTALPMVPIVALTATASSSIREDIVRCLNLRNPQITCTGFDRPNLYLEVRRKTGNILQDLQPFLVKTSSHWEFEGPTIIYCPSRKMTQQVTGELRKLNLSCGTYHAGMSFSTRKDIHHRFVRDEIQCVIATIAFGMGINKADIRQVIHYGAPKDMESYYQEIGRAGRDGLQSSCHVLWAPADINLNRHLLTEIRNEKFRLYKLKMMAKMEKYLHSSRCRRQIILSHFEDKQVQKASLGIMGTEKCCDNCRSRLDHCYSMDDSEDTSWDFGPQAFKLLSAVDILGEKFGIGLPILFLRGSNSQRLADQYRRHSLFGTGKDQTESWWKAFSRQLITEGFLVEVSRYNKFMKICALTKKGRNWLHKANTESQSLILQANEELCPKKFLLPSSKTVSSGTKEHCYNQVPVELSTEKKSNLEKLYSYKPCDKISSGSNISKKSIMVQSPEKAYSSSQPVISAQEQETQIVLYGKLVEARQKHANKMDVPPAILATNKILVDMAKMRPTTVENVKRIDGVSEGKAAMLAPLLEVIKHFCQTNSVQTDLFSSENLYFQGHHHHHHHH", "assay": "WRN (BV08) ADP-Glo assay", "format": "biochemical", "details": "class symbols A-E, read-out: ADP-Glo_hWRN_IC50"}},
  "data": [
    {"compound": "CCc1c(N2CCN(C(=O)c3c(OC)ncc(OC)c3O)[C@H]3CC[C@@H]32)c(=O)c2nc(N(C)C)cnc2n1CC(=O)Nc1ccc(C(F)(F)F)cc1Cl", "note": "[I-274]", "values": [
      {"measurement": "EC50", "setting": "[1]", "result": "< 500", "unit": "nM"},
      {"measurement": "IC50", "setting": "[2]", "result": "5 to 50", "unit": "nM"}
    ]},
    {"compound": "CCOc1ncc(C)c(O)c1C(=O)N1CCN(c2c(CC)n(CC(=O)Nc3ccc(C(F)(F)F)cc3Cl)c3ncc(N(C)C)nc3c2=O)[C@H]2CC[C@@H]21", "note": "[I-275, N-[2-chloro-4-(trifluoromethyl)phenyl]-2-[2-(dimethylamino)-7-[(1S,6S)-5-(2-ethoxy-4-hydroxy-5-methylpyridine-3-carbonyl)-2,5-diazabicyclo[4.2.0]octan-2-yl]-6-ethyl-8-oxo-5H,8H-pyrido[2,3-b]pyrazin-5-yl]acetamide]", "values": [
      {"measurement": "EC50", "setting": "[1]", "result": "< 500", "unit": "nM"},
      {"measurement": "IC50", "setting": "[2]", "result": "5 to 50", "unit": "nM"}
    ]},
    {"compound": "CCc1c(N2CCN(C(=O)c3c(OC)ncc(C(F)F)c3O)[C@H]3CC[C@@H]32)c(=O)c2nc(N(C)C)cnc2n1CC(=O)Nc1ccc(C(F)(F)F)cc1Cl", "note": "[I-280, N-[2-chloro-4-(trifluoromethyl)phenyl]-2-{7-[(1S,6S)-5-[5-(difluoromethyl)-4-hydroxy-2-methoxypyridine-3-carbonyl]-2,5-diazabicyclo[4.2.0]octan-2-yl]-2-(dimethylamino)-6-ethyl-8-oxo-5H,8H-pyrido[2,3-b]pyrazin-5-yl}acetamide]", "values": [
      {"measurement": "EC50", "setting": "[1]", "result": "> 5000", "unit": "nM"},
      {"measurement": "IC50", "setting": "[2]", "result": "5 to 50", "unit": "nM"}
    ]},
    {"compound": "CCc1c(N2CCN(C(=O)c3c(OC(F)F)ncc(C)c3O)[C@H]3CC[C@@H]32)c(=O)c2nc(N(C)C)cnc2n1CC(=O)Nc1ccc(C(F)(F)F)cc1Cl", "note": "[I-281, N-[2-chloro-4-(trifluoromethyl)phenyl]-2-{7-[(1S,6S)-5-[2-(difluoromethoxy)-4-hydroxy-5-methylpyridine-3-carbonyl]-2,5-diazabicyclo[4.2.0]octan-2-yl]-2-(dimethylamino)-6-ethyl-8-oxo-5H,8H-pyrido[2,3-b]pyrazin-5-yl}acetamide]", "values": [
      {"measurement": "EC50", "setting": "[1]", "result": "< 500", "unit": "nM"},
      {"measurement": "IC50", "setting": "[2]", "result": "5 to 50", "unit": "nM"}
    ]},
    {"compound": "CCc1c(N2CCN(C(=O)c3c(OCCOC)ncc(C)c3O)[C@H]3CC[C@@H]32)c(=O)c2nc(N(C)C)cnc2n1CC(=O)Nc1ccc(C(F)(F)F)cc1Cl", "note": "[I-282, N-[2-chloro-4-(trifluoromethyl)phenyl]-2-[2-(dimethylamino)-6-ethyl-7-[(1S,6S)-5-[4-hydroxy-2-(2-methoxyethoxy)-5-methylpyridine-3-carbonyl]-2,5-diazabicyclo[4.2.0]octan-2-yl]-8-oxo-5H,8H-pyrido[2,3-b]pyrazin-5-yl]acetamide]", "values": [
      {"measurement": "EC50", "setting": "[1]", "result": "< 500", "unit": "nM"},
      {"measurement": "IC50", "setting": "[2]", "result": "5 to 50", "unit": "nM"}
    ]},
    {"compound": "CCc1c(N2CCN(C(=O)c3ncnc(C)c3O)[C@H]3CC[C@@H]32)c(=O)c2nc(-c3ccnc(OC)c3)cnc2n1CC(=O)Nc1ccc(C(F)(F)F)cc1Cl", "note": "[I-283, N-[2-chloro-4-(trifluoromethyl)phenyl]-2-{6-ethyl-7-[(1S,6S)-5-(5-hydroxy-6-methylpyrimidine-4-carbonyl)-2,5-diazabicyclo[4.2.0]octan-2-yl]-2-(2-methoxypyridin-4-yl)-8-oxo-5H,8H-pyrido[2,3-b]pyrazin-5-yl}acetamide]", "values": [
      {"measurement": "EC50", "setting": "[1]", "result": "< 500", "unit": "nM"},
      {"measurement": "IC50", "setting": "[2]", "result": "≤ 5", "unit": "nM"}
    ]},
    {"compound": "CCc1c(N2CCN(C(=O)c3ncnc(C)c3O)[C@H]3CC[C@@H]32)c(=O)c2nc(C3=CCOCC3)cnc2n1CC(=O)Nc1ccc(C(F)(F)F)cc1Cl", "note": "[I-284, N-[2-chloro-4-(trifluoromethyl)phenyl]-2-[2-(3,6-dihydro-2H-pyran-4-yl)-6-ethyl-7-[(1S,6S)-5-(5-hydroxy-6-methylpyrimidine-4-carbonyl)-2,5-diazabicyclo[4.2.0]octan-2-yl]-8-oxo-5H,8H-pyrido[2,3-b]pyrazin-5-yl]acetamide]", "values": [
      {"measurement": "EC50", "setting": "[1]", "result": "< 500", "unit": "nM"},
      {"measurement": "IC50", "setting": "[2]", "result": "5 to 50", "unit": "nM"}
    ]},
    {"compound": "CCc1c(N2CCN(C(=O)c3ncnc(C)c3O)[C@H]3CC[C@@H]32)c(=O)c2nc(CN3CCOCC3)cnc2n1CC(=O)Nc1ccc(C(F)(F)F)cc1Cl", "note": "[I-285, N-[2-chloro-4-(trifluoromethyl)phenyl]-2-{6-ethyl-7-[(1S,6S)-5-(5-hydroxy-6-methylpyrimidine-4-carbonyl)-2,5-diazabicyclo[4.2.0]octan-2-yl]-2-[(morpholin-4-yl)methyl]-8-oxo-5H,8H-pyrido[2,3-b]pyrazin-5-yl}acetamide]", "values": [
      {"measurement": "EC50", "setting": "[1]", "result": "500 to 2000", "unit": "nM"},
      {"measurement": "IC50", "setting": "[2]", "result": "5 to 50", "unit": "nM"}
    ]},
    {"compound": "CCc1c(N2CCN(C(=O)c3c(OC)ncc(C4CC4)c3O)[C@H]3CC[C@@H]32)c(=O)c2nc(N(C)C)cnc2n1CC(=O)Nc1ccc(C(F)(F)F)cc1Cl", "note": "[I-286, N-[2-chloro-4-(trifluoromethyl)phenyl]-2-{7-[(1S,6S)-5-(5-cyclopropyl-4-hydroxy-2-methoxypyridine-3-carbonyl)-2,5-diazabicyclo[4.2.0]octan-2-yl]-2-(dimethylamino)-6-ethyl-8-oxo-5H,8H-pyrido[2,3-b]pyrazin-5-yl} acetamide]", "values": [
      {"measurement": "EC50", "setting": "[1]", "result": "< 500", "unit": "nM"},
      {"measurement": "IC50", "setting": "[2]", "result": "5 to 50", "unit": "nM"}
    ]},
    {"compound": "CCc1c(N2CCN(C(=O)c3c(OC)ncc(C4CCOC4)c3O)[C@H]3CC[C@@H]32)c(=O)c2nc(N(C)C)cnc2n1CC(=O)Nc1ccc(C(F)(F)F)cc1Cl", "note": "(stereo partly drawn) [I-287, N-[2-chloro-4-(trifluoromethyl)phenyl]-2-[2-(dimethylamino)-6-ethyl-7-[(1S,6S)-5-[4-hydroxy-2-methoxy-5-(oxolan-3-yl)pyridine-3-carbonyl]-2,5-diazabicyclo[4.2.0]octan-2-yl]-8-oxo-5H,8H-pyrido[2,3-b]pyrazin-5-yl]acetamide]", "values": [
      {"measurement": "EC50", "setting": "[1]", "result": "< 500", "unit": "nM"},
      {"measurement": "IC50", "setting": "[2]", "result": "5 to 50", "unit": "nM"}
    ]},
    {"compound": "CCc1c(N2CCN(C(=O)c3ncnc(C)c3O)[C@H]3CC[C@@H]32)c(=O)c2nc(N(C)C3CCC(O)C3)cnc2n1CC(=O)Nc1ccc(C(F)(F)F)cc1Cl", "note": "(stereo partly drawn) [I-288, N-[2-chloro-4-(trifluoromethyl)phenyl]-2-{6-ethyl-7-[(1S,6S)-5-(5-hydroxy-6-methylpyrimidine-4-carbonyl)-2,5-diazabicyclo[4.2.0]octan-2-yl]-2-[(3-hydroxycyclopentyl)(methyl)amino]-8-oxo-5H,8H-pyrido[2,3-b]pyrazin-5-yl}acetamide]", "values": [
      {"measurement": "EC50", "setting": "[1]", "result": "< 500", "unit": "nM"},
      {"measurement": "IC50", "setting": "[2]", "result": "5 to 50", "unit": "nM"}
    ]},
    {"compound": "CCc1c(N2CCN(C(=O)c3ncnc(C)c3O)[C@H]3CC[C@@H]32)c(=O)c2nc(N(C)C)cnc2n1CC(=O)Nc1ccc(OC)cc1Cl", "note": "[I-289, N-(2-chloro-4-methoxyphenyl)-2-[2-(dimethylamino)-6-ethyl-7-[(1S,6S)-5-(5-hydroxy-6-methylpyrimidine-4-carbonyl)-2,5-diazabicyclo[4.2.0]octan-2-yl]-8-oxo-5H,8H-pyrido[2,3-b]pyrazin-5-yl]acetamide]", "values": [
      {"measurement": "EC50", "setting": "[1]", "result": "500 to 2000", "unit": "nM"},
      {"measurement": "IC50", "setting": "[2]", "result": "5 to 50", "unit": "nM"}
    ]},
    {"compound": "CCc1c(N2CCN(C(=O)c3ncnc(C)c3O)[C@H]3CC[C@@H]32)c(=O)c2nc(N3CCC4(COC4)C3)cnc2n1CC(=O)Nc1ccc(C(F)(F)F)cc1Cl", "note": "[I-290, N-[2-chloro-4-(trifluoromethyl)phenyl]-2-{6-ethyl-7-[(1S,6S)-5-(5-hydroxy-6-methylpyrimidine-4-carbonyl)-2,5-diazabicyclo[4.2.0]octan-2-yl]-2-{2-oxa-6-azaspiro[3.4]octan-6-yl}-8-oxo-5H,8H-pyrido[2,3-b]pyrazin-5-yl}acetamide]", "values": [
      {"measurement": "EC50", "setting": "[1]", "result": "< 500", "unit": "nM"},
      {"measurement": "IC50", "setting": "[2]", "result": "5 to 50", "unit": "nM"}
    ]},
    {"compound": "CCc1c(N2CCN(C(=O)c3c(OC)ncc(COC)c3O)[C@H]3CC[C@@H]32)c(=O)c2nc(N(C)C)cnc2n1CC(=O)Nc1ccc(C(F)(F)F)cc1Cl", "note": "[I-292, N-[2-chloro-4-(trifluoromethyl)phenyl]-2-[2-(dimethylamino)-6-ethyl-7-[(1S,6S)-5-[4-hydroxy-2-methoxy-5-(methoxymethyl)pyridine-3-carbonyl]-2,5-diazabicyclo[4.2.0]octan-2-yl]-8-oxo-5H,8H-pyrido[2,3-b]pyrazin-5-yl]acetamide]", "values": [
      {"measurement": "EC50", "setting": "[1]", "result": "> 5000", "unit": "nM"},
      {"measurement": "IC50", "setting": "[2]", "result": "5 to 50", "unit": "nM"}
    ]},
    {"compound": "CCc1c(N2CCN(C(=O)c3ncnc(C)c3O)[C@H]3CC[C@@H]32)c(=O)c2nc(N(C)C3CCC3O)cnc2n1CC(=O)Nc1ccc(C(F)(F)F)cc1Cl", "note": "(stereo partly drawn) [I-293, N-[2-chloro-4-(trifluoromethyl)phenyl]-2-{6-ethyl-7-[(1S,6S)-5-(5-hydroxy-6-methylpyrimidine-4-carbonyl)-2,5-diazabicyclo[4.2.0]octan-2-yl]-2-[(2-hydroxycyclobutyl)(methyl)amino]-8-oxo-5H,8H-pyrido[2,3-b]pyrazin-5-yl}acetamide]", "values": [
      {"measurement": "EC50", "setting": "[1]", "result": "< 500", "unit": "nM"},
      {"measurement": "IC50", "setting": "[2]", "result": "5 to 50", "unit": "nM"}
    ]},
    {"compound": "CCc1c(N2CCN(C(=O)c3ncnc(C)c3O)[C@H]3CC[C@@H]32)c(=O)c2nc(N(C)[C@H]3CC[C@H](O)C3)cnc2n1CC(=O)Nc1ccc(C(F)(F)F)cc1Cl", "note": "[I-299, N-[2-chloro-4-(trifluoromethyl)phenyl]-2-{6-ethyl-7-[(1S,6S)-5-(5-hydroxy-6-methylpyrimidine-4-carbonyl)-2,5-diazabicyclo[4.2.0]octan-2-yl]-2-{[(1S,3S)-3-hydroxycyclopentyl](methyl)amino}-8-oxo-5H,8H-pyrido[2,3-b]pyrazin-5-yl}acetamide]", "values": [
      {"measurement": "EC50", "setting": "[1]", "result": "< 500", "unit": "nM"},
      {"measurement": "IC50", "setting": "[2]", "result": "5 to 50", "unit": "nM"}
    ]},
    {"compound": "CCc1c(N2CCN(C(=O)c3ncnc(C)c3O)[C@H]3CC[C@@H]32)c(=O)c2nc(N(C)[C@@H]3CC[C@H](O)C3)cnc2n1CC(=O)Nc1ccc(C(F)(F)F)cc1Cl", "note": "[I-300, N-[2-chloro-4-(trifluoromethyl)phenyl]-2-{6-ethyl-7-[(1S,6S)-5-(5-hydroxy-6-methylpyrimidine-4-carbonyl)-2,5-diazabicyclo[4.2.0]octan-2-yl]-2-{[(1R,3S)-3-hydroxycyclopentyl](methyl)amino}-8-oxo-5H,8H-pyrido[2,3-b]pyrazin-5-yl}acetamide]", "values": [
      {"measurement": "EC50", "setting": "[1]", "result": "< 500", "unit": "nM"},
      {"measurement": "IC50", "setting": "[2]", "result": "5 to 50", "unit": "nM"}
    ]},
    {"compound": "CCc1c(N2CCN(C(=O)c3ncnc(C)c3O)[C@H]3CC[C@@H]32)c(=O)c2nc(N(C)[C@@H]3CC[C@@H](O)C3)cnc2n1CC(=O)Nc1ccc(C(F)(F)F)cc1Cl", "note": "[I-301, N-[2-chloro-4-(trifluoromethyl)phenyl]-2-{6-ethyl-7-[(1S,6S)-5-(5-hydroxy-6-methylpyrimidine-4-carbonyl)-2,5-diazabicyclo[4.2.0]octan-2-yl]-2-{[(1R,3R)-3-hydroxycyclopentyl](methyl)amino}-8-oxo-5H,8H-pyrido[2,3-b]pyrazin-5-yl}acetamide]", "values": [
      {"measurement": "EC50", "setting": "[1]", "result": "< 500", "unit": "nM"},
      {"measurement": "IC50", "setting": "[2]", "result": "5 to 50", "unit": "nM"}
    ]}
  ]
}
